According to US11530221B2, “Pyrimido[4,5-d]pyrimidin-2-one derivatives as protein kinase inhibitors” (KOREA INSTITUTE OF SCIENCE AND TECHNOLOGY, priority 2019, dated 2022):
Like-named read-outs stand apart in the source and are kept apart here. Square brackets hold non-standard residues; d marks the D form. Peptide text beside a SMILES is read from it. * marks the point of attachment. X1 = Cc1ccc(Nc2ncc3c(n2)N(C)C(=O)N(c2cc(C(=O)*)ccc2C)C3)cn1; Aib = CC(C)(N)C(=O)O

What was measured:
Format in all cases: biochemical
[1] = target: p38a/MAPK14 (Homo sapiens, UniProt Q16539); experiment: IC50 inhibitory activity against p38a/MAPK14 kinase
Description: (§1) IC50 values were calculated by measuring the inhibitory activity against LCK, c-Src, p38a/MAPK14, ABL1, DDR1 and FGR kinases of the compounds of the present invention.

[2] = target: ABL1 (T315I) (Homo sapiens, UniProt P00519, T315I); experiment: IC50 inhibitory activity against ABL1 (T315I) kinase
Description: as §1

[3] = target: ABL1 (Homo sapiens, UniProt P00519); experiment: IC50 inhibitory activity against ABL1 kinase
Description: as §1

[4] = target: LCK (Homo sapiens, UniProt P06239); experiment: IC50 inhibitory activity against LCK kinase
Description: as §1

[5] = target: c-Src (Homo sapiens, UniProt P12931); experiment: IC50 inhibitory activity against c-Src kinase
Description: as §1

[6] = target: LYN (Homo sapiens, UniProt P07948); experiment: IC50 inhibitory activity against LYN kinase
LYN, sequence (P07948 whole entry): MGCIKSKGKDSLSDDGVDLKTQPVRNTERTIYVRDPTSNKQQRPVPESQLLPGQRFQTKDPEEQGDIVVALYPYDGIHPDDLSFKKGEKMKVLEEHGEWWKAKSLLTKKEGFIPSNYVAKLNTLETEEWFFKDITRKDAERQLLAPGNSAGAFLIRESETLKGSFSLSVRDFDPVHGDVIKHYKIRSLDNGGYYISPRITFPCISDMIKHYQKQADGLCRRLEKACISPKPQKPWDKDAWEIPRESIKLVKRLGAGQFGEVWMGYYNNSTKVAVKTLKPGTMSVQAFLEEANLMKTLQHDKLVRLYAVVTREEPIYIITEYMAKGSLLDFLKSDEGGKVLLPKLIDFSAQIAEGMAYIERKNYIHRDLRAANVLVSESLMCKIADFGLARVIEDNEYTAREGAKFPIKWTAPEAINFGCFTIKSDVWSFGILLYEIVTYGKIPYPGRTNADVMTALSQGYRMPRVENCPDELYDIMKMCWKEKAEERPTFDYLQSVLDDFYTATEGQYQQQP

c-Src, sequence (P12931 whole entry): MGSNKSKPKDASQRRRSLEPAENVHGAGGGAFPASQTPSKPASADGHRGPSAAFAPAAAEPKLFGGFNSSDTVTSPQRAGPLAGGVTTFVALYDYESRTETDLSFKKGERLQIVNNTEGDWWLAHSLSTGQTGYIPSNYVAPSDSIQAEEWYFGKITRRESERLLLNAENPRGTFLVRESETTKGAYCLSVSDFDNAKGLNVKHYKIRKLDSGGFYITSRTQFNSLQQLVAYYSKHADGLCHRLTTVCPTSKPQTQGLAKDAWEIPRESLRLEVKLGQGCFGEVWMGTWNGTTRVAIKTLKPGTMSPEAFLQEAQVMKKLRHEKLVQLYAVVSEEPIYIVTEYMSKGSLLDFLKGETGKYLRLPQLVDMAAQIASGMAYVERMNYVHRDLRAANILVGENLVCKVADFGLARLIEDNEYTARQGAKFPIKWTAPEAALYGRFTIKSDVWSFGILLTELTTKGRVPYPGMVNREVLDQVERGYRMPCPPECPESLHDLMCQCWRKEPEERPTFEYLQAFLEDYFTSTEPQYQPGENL
p38a/MAPK14, sequence (Q16539 whole entry): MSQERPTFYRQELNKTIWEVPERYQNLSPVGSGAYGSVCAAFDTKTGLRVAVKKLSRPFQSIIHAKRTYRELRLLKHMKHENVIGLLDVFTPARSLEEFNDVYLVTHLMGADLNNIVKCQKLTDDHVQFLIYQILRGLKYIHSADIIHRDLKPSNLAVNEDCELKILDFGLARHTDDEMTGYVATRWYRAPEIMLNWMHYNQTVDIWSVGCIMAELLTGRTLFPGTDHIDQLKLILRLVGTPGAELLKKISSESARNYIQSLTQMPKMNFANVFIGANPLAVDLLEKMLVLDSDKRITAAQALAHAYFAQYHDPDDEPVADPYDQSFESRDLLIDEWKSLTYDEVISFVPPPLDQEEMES
LCK, sequence (P06239 whole entry): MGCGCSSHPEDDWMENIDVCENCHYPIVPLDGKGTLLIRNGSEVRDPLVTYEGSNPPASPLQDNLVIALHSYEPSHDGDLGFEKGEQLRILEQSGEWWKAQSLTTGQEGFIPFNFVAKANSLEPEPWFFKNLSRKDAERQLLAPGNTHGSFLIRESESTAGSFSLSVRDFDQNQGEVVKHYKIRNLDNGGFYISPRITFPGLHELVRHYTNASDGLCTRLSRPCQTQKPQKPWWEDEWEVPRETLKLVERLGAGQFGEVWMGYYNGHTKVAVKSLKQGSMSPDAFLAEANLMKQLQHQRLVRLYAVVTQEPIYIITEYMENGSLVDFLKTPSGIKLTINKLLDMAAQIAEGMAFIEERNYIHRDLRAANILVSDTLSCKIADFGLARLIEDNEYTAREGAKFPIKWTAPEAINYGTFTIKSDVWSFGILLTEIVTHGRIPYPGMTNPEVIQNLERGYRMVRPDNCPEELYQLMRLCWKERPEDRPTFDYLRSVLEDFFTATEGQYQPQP

IC50 ([1]; read-out: p38a/MAPK14 IC50) [nM] | IC50 ([2]; read-out: ABL1 (T315I) IC50) [nM] | IC50 ([3]; read-out: ABL1 IC50) [nM] | IC50 ([4]; read-out: LCK IC50) [nM] | IC50 ([5]; read-out: c-Src IC50) [nM] | SMILES | also measured
1 to 200 |  | 1 to 200 | 1 to 200 | 1 to 200 | Cc1ccc(Nc2ncc3c(n2)N(C)C(=O)N(c2cc(NC(=O)[C@@H]4CN(C(=O)OCC(Cl)(Cl)Cl)C[C@H]4C(=O)NCc4ccc(Cl)cc4)ccc2C)C3)cn1 [Example 57, 2,2,2-trichloroethyl (3S,4S)-3-((4-chlorobenzyl)carbamoyl)-4-((4-methyl-3-(1-methyl-7-((6-methylpyridin-3-yl)amino)-2-oxo-1,4-dihydropyrimido[4,5-d]pyrimidin-3(2H)-yl)phenyl)carbamoyl)pyrrolidine-1-carboxylate] | 
 |  |  |  |  | Cc1ccc(Nc2ncc3c(n2)N(C)C(=O)N(c2cc(C(=O)N[C@H](C(=O)N4CCC[C@@H]4C(=O)NC(C)(C)C(=O)N[C@@H](CC(C)C)C(=O)N(C)C)C(C)C)ccc2C)C3)cn1 [Example 2, (R)—N-(1-(((S)-1-(dimethylamino)-4-methyl-1-oxopentan-2-yl)amino)-2-methyl-1-oxopropan-2-yl)-1-((4-methyl-3-(1-methyl-7-((6-methylpyridin-3-yl)amino)-2-oxo-1,4-dihydropyrimido[4,5-d]pyrimidin-3(2H)-yl)benzoyl)-L-valyl)pyrrolidine-2-carboxamide] (X1-V[dP][Aib]L-NMe2) | IC50 [1]: > 600 nM; IC50 [2]: > 600 nM; IC50 [4]: 1 to 200 nM; IC50 [3]: 200 to 400 nM; IC50 [5]: 200 to 400 nM
> 600 | > 600 | 1 to 200 | 1 to 200 | 1 to 200 | Cc1ccc(Nc2ncc3c(n2)N(C)C(=O)N(c2cc(NC(=O)c4ccc5c(c4)NC(=O)[C@H](Cc4ccccc4)N=C5c4ccccc4)ccc2C)C3)cn1 [Example 26, (S)-3-benzyl-N-(4-methyl-3-(1-methyl-7-((6-methylpyridin-3-yl)amino)-2-oxo-1,4-dihydropyrimido[4,5-d]pyrimidin-3(2H)-yl)phenyl)-2-oxo-5-phenyl-2,3-dihydro-1H-benzo[e][1,4]diazepine-8-carboxamide] | 
 |  |  | 1 to 200 | 1 to 200 | Cc1ccc(Nc2ncc3c(n2)N(C)C(=O)N(c2cc(NC(=O)c4ccc5c(c4)N(C)C(=O)[C@H](CC(C)C)N=C5c4ccccc4)ccc2C)C3)cn1 [Example 37, (S)-3-isobutyl-1-methyl-N-(4-methyl-3-(1-methyl-7-((6-methylpyridin-3-yl)amino)-2-oxo-1,4-dihydropyrimido[4,5-d]pyrimidin-3(2H)-yl)phenyl)-2-oxo-5-phenyl-2,3-dihydro-1H-benzo[e][1,4]diazepine-8-carboxamide] | IC50 [6]: 1 to 200 nM
1 to 200 | > 600 | 1 to 200 | 1 to 200 | 1 to 200 | Cc1ccc(Nc2ncc3c(n2)N(C)C(=O)N(c2cc(NC(=O)c4ccc5c(c4)N(Cc4ccccc4)C(=O)[C@H](C)N=C5c4ccccc4)ccc2C)C3)cn1 [Example 31, (S)-1-benzyl-3-methyl-N-(4-methyl-3-(1-methyl-7-((6-methylpyridin-3-yl)amino)-2-oxo-1,4-dihydropyrimido[4,5-d]pyrimidin-3(2H)-yl)phenyl)-2-oxo-5-phenyl-2,3-dihydro-1H-benzo[e][1,4]diazepine-8-carboxamide] | IC50 [6]: 1 to 200 nM
1 to 200 | > 600 | 1 to 200 | 1 to 200 | 1 to 200 | Cc1ccc(Nc2ncc3c(n2)N(C)C(=O)N(c2cc(NC(=O)c4ccc5c(c4)NC(=O)[C@H](C)N=C5c4ccccc4)ccc2C)C3)cn1 [Example 30, (S)-3-methyl-N-(4-methyl-3-(1-methyl-7-((6-methylpyridin-3-yl)amino)-2-oxo-1,4-dihydropyrimido[4,5-d]pyrimidin-3(2H)-yl)phenyl)-2-oxo-5-phenyl-2,3-dihydro-1H-benzo[e][1,4]diazepine-8-carboxamide] | 
 |  |  | 1 to 200 | 1 to 200 | CC1=N[C@@H](Cc2ccccc2)C(=O)Nc2cc(C(=O)Nc3ccc(C)c(N4Cc5cnc(Nc6ccc(C)nc6)nc5N(C)C4=O)c3)ccc21 [Example 34, (S)-3-benzyl-5-methyl-N-(4-methyl-3-(1-methyl-7-((6-methylpyridin-3-yl)amino)-2-oxo-1,4-dihydropyrimido[4,5-d]pyrimidin-3(2H)-yl)phenyl)-2-oxo-2,3-dihydro-1H-benzo[e][1,4]diazepine-8-carboxamide] | IC50 [6]: 1 to 200 nM
200 to 400 | > 600 | 1 to 200 | 1 to 200 | 1 to 200 | CC[C@@H](C)[C@H]1N=C(c2ccccc2)c2ccc(C(=O)Nc3ccc(C)c(N4Cc5cnc(Nc6ccc(C)nc6)nc5N(C)C4=O)c3)cc2NC1=O [Example 32, (R)-3-((R)-sec-butyl)-N-(4-methyl-3-(1-methyl-7-((6-methylpyridin-3-yl)amino)-2-oxo-1,4-dihydropyrimido[4,5-d]pyrimidin-3(2H)-yl)phenyl)-2-oxo-5-phenyl-2,3-dihydro-1H-benzo[e][1,4]diazepine-8-carboxamide] | 
400 to 600 |  | 1 to 200 | 1 to 200 | 1 to 200 | Cc1ccc(Nc2ncc3c(n2)N(C)C(=O)N(c2cc(C(=O)N4C[C@@H](C(=O)NCCc5c[nH]c6ccccc56)[C@H](C(=O)NCc5ccc(Cl)cc5)C4)ccc2C)C3)cn1 [Example 48, (3S,4S)—N^3-(2-(1H-indol-3-yl)ethyl)-N^4-(4-chlorobenzyl)-1-(4-methyl-3-(1-methyl-7-((6-methylpyridin-3-yl)amino)-2-oxo-1,4-dihydropyrimido[4,5-d]pyrimidin-3(2H)-yl)benzoyl)pyrrolidine-3,4-dicarboxamide] | 
1 to 200 |  | 1 to 200 | 1 to 200 | 1 to 200 | Cc1ccc(Nc2ncc3c(n2)N(C)C(=O)N(c2cc(C(=O)N4C[C@@H](C(=O)NCc5ccccc5)[C@H](C(=O)NCc5ccc(Cl)cc5)C4)ccc2C)C3)cn1 [Example 47, (3S,4S)—N^3-benzyl-N^4-(4-chlorobenzyl)-1-(4-methyl-3-(1-methyl-7-((6-methylpyridin-3-yl)amino)-2-oxo-1,4-dihydropyrimido[4,5-d]pyrimidin-3(2H)-yl)benzoyl)pyrrolidine-3,4-dicarboxamide] | 
 |  |  | 1 to 200 | 200 to 400 | C=CCN1C(=O)[C@H](CC(C)C)N=C(c2ccccc2)c2ccc(C(=O)Nc3ccc(C)c(N4Cc5cnc(Nc6ccc(C)nc6)nc5N(C)C4=O)c3)cc21 [Example 38, (S)-1-allyl-3-isobutyl-N-(4-methyl-3-(1-methyl-7-((6-methylpyridin-3-yl)amino)-2-oxo-1,4-dihydropyrimido[4,5-d]pyrimidin-3(2H)-yl)phenyl)-2-oxo-5-phenyl-2,3-dihydro-1H-benzo[e][1,4]diazepine-8-carboxamide] | IC50 [6]: 1 to 200 nM
1 to 200 |  | 1 to 200 | 1 to 200 |  | COc1ccc(CCOc2cc(C(=O)Nc3ccc(C)c(N4Cc5cnc(Nc6ccc(C)nc6)nc5N(C)C4=O)c3)ccc2[N+](=O)[O-])cc1 [Example 51, 3-(4-methoxyphenethoxy)-N-(4-methyl-3-(1-methyl-7-((6-methylpyridin-3-yl)amino)-2-oxo-1,4-dihydropyrimido[4,5-d]pyrimidin-3(2H)-yl)phenyl)-4-nitrobenzamide] | 
 |  |  | 1 to 200 | 1 to 200 | CC1=N[C@H](Cc2ccccc2)C(=O)Nc2cc(C(=O)Nc3ccc(C)c(N4Cc5cnc(Nc6ccc(C)nc6)nc5N(C)C4=O)c3)ccc21 [Example 35, (R)-3-benzyl-5-methyl-N-(4-methyl-3-(1-methyl-7-((6-methylpyridin-3-yl)amino)-2-oxo-1,4-dihydropyrimido[4,5-d]pyrimidin-3(2H)-yl)phenyl)-2-oxo-2,3-dihydro-1H-benzo[e][1,4]diazepine-8-carboxamide] | IC50 [6]: 1 to 200 nM

SMILES | IC50 ([1]; read-out: p38a/MAPK14 IC50) [nM] | IC50 ([2]; read-out: ABL1 (T315I) IC50) [nM] | IC50 ([3]; read-out: ABL1 IC50) [nM] | IC50 ([4]; read-out: LCK IC50) [nM] | IC50 ([5]; read-out: c-Src IC50) [nM] | also measured
Cc1ccc(Nc2ncc3c(n2)N(C)C(=O)N(c2cc(NC(=O)c4ccc([N+](=O)[O-])c(OCC(C)C)c4)ccc2C)C3)cn1 [Example 49, 3-isobutoxy-N-(4-methyl-3-(1-methyl-7-((6-methylpyridin-3-yl)amino)-2-oxo-1,4-dihydropyrimido[4,5-d]pyrimidin-3(2H)-yl)phenyl)-4-nitrobenzamide] | 1 to 200 | > 600 | 1 to 200 |  |  | 
Cc1ccc(Nc2ncc3c(n2)N(C)C(=O)N(c2cc(NC(=O)CNC(=O)c4ccc([N+](=O)[O-])c(OCC(C)C)c4)ccc2C)C3)cn1 [Example 52, 3-isobutoxy-N-(2-((4-methyl-3-(1-methyl-7-((6-methylpyridin-3-yl)amino)-2-oxo-1,4-dihydropyrimido[4,5-d]pyrimidin-3(2H)-yl)phenyl)amino)-2-oxoethyl)-4-nitrobenzamide] | 400 to 600 | > 600 | 1 to 200 |  |  | 
Cc1ccc(Nc2ncc3c(n2)N(C)C(=O)N(c2cc(NC(=O)[C@H](CC(C)C)NC(=O)c4ccc([N+](=O)[O-])c(OCC(C)C)c4)ccc2C)C3)cn1 [Example 54, (S)-3-isobutoxy-N-(4-methyl-1-((4-methyl-3-(1-methyl-7-((6-methylpyridin-3-yl)amino)-2-oxo-1,4-dihydropyrimido[4,5-d]pyrimidin-3(2H)-yl)phenyl)amino)-1-oxopentan-2-yl)-4-nitrobenzamide] | > 600 | > 600 | 1 to 200 |  |  | 
Cc1ccc(Nc2ncc3c(n2)N(C)C(=O)N(c2cc(NC(=O)[C@H](C)NC(=O)c4ccc([N+](=O)[O-])c(OCC(C)C)c4)ccc2C)C3)cn1 [Example 53, (S)-3-isobutoxy-N-(1-((4-methyl-3-(1-methyl-7-((6-methylpyridin-3-yl)amino)-2-oxo-1,4-dihydropyrimido[4,5-d]pyrimidin-3(2H)-yl)phenyl)amino)-2-oxopropan-2-yl)-4-nitrobenzamide] | > 600 |  | > 600 |  |  | 
